The results in this text go back to US9073862B2, “Substituted 2-oxy-quinoline-3-carboxamides as KCNQ2/3 modulators” (Grünenthal GmbH, priority 2010, dated 2015).

SMILES strings stand for the structures.

Assay [1] concerns the target T1, KCNQ2/3 channels (Homo sapiens, UniProt O43525+O43526).
T1 construct: expressed in transfected cells; host or cells: CHO-K1
The assay can be described thus: Fluorescence assay using a voltage sensitive dye (fluorimetry). The class given is cell-based. As to conditions: CHO-K1 cells expressing KCNQ2/3 channels; for Emax: relative to retigabine = 100%, read-out: Fluorimetry % efficacy (retigabine = 100%). As to the method: Method I. Fluorescence Assay Using a Voltage Sensitive Dye (Fluorimetry)
[…] CHO-K1 cells expressing KCNQ2/3 channels are cultivated adherently at 37° C., 5% CO2 and 95% humidity in cell culture bottles (e.g. 80 cm^2 TC flasks, Nunc) with DMEM-high glucose (Sigma Aldrich, D7777) including 10% FCS (PAN Biotech, e.g. 3302-P270521) or alternatively MEM Alpha Medium (1×, liquid, Invitrogen, #22571), 10% fetal calf serum (FCS) (Invitrogen, #10270-106, heat-inactivated) and the necessary selection antibiotics.
Before being sown out for the measurements, the cells are washed with 1×DPBS buffer Ca^2+/Mg^2+-free (e.g. Invitrogen, #14190-094) and detached from the bottom of the culture vessel by using Accutase (PAA Laboratories, #L11-007) (incubation with Accutase for 15 min at 37° C.). The cell number is determined using a CASY™ cell counter (TCC, Schärfe System). Depending on the optimal density for each individual cell line, 20,000-30,000 cells/well/100 μl are seeded onto 96-well Corning™ CellBIND™ assay plates (Flat Clear Bottom Black Polystyrene Microplates, #3340). Freshly seeded cells are then left to settle for one hour at room temperature, followed by incubation for 24 hours at 37° C., 5% CO2 and 95% humidity.
The voltage-sensitive fluorescent dye from the Membrane Potential Assay Kit (Red™ Bulk format part R8123 for FLIPR, MDS Analytical Technologies™) is prepared by dissolving the contents of one vessel Membrane Potential Assay Kit Red Component A in 200 ml of extracellular buffer (ES buffer, 120 mM NaCl, 1 mM KCl, 10 mM HEPES, 2 mM CaCl2, 2 mM MgCl2, 10 mM glucose; pH 7.4). After removal of the nutrient medium, the cells are washed once with 200 μl of ES buffer, then loaded for 45 min at room temperature in 100 μl of dye solution in the dark.
Fluorescence measurements are carried out in a BMG Labtech FLUOstar™, BMG Labtech NOVOstar™ or BMG Labtech POLARstar™ instrument (525 nm excitation, 560 nm emission, Bottom Read mode). After incubation with the dye, 50 μl of the test substances in the desired concentrations, or 50 μl of ES buffer for control purposes, are applied to the wells of the assay plate and incubated for 30 min at room temperature while being shielded from light. The fluorescence intensity of the dye is then measured for 5 min and the fluorescence value F1 of each well is thus determined at a given, constant time. 15 μl of a KCl solution are then added to each well (final concentration of potassium ions 92 mM). The change in fluorescence intensity is subsequently monitored until all the relevant values have been obtained (mainly 5-30 min). At a given time post KCl application, a fluorescence value F2 is determined, in this case at the time of the fluorescence peak.
For calculation, the fluorescence intensity F2 is corrected for the fluorescence intensity F1, and the activity (ΔF/F) of the target compound on the potassium channel is determined as follows:
In order to determine whether a substance has agonistic activity,
[formula] can be related to
[formula] of control wells.
[formula] is determined by adding to the well only the buffer solution instead of the test substance, determining the value F1K of the fluorescence intensity, adding the potassium ions as described above, and measuring a value F2K of the fluorescence intensity. F2K and F1K are then calculated as follows: […]
A substance has an agonistic activity on the potassium channel if
[formula] is greater than
Independently of the comparison of
[formula] it is possible to conclude that a target compound has agonistic activity if
[formula] increases dose dependently.
Calculations of EC50 and IC50 values are carried out with the aid of ‘Prism v4.0’ software (Graph Pad Software™).

The test system of assay [2] is withdrawal reflex of the rat tail (tail flick) in response to a radiant heat beam. The assay can be described thus: Low-intensity tail flick test (rat). To be noted: po, peroral, read-out: Low intensity tail flick, rat, peroral, MPE (dose). In kind it is in vivo. The procedure: Method II. Low-Intensity Tail Flick Test (Rat)
In the low-intensity tail flick test, the determination of the antinociceptive effect of the compounds according to the invention towards an acute noxious thermal stimulus is carried out by measuring the withdrawal reflex of the rat tail (tail flick) in response to a radiant heat beam (analgesia meter; model 2011 of the company Rhema Labortechnik, Hofheim, Germany) according to the method described by D'Amour and Smith (J. Pharm. Exp. Ther. 72, 74 79 (1941). To this end, the rats were placed in a plexiglas restrainer, and a low-intensity radiant heat beam (48° C.) was focused onto the dorsal surface of the tail root. The stimulus intensity was adjusted to result in a mean pre-drug control withdrawal latency of about 7 s, thus also allowing a supraspinal modulation of the spinally mediated acute nociceptive reflex. A cutoff time of 30 s was applied to avoid tissue damage. Male Sprague-Dawley rats (Janvier, Le Genest St. Isle, Frankreich) with weights of 200-250 g were used. 10 rats were used per group. Before administration of a compound according to the invention, the animals were pre-tested twice in the course of five minutes and the mean of these measurements was calculated as the pre-test mean. The antinociceptive effect was determined at 20, 40 and 60 min after peroral compound administration. The antinociceptive effect was calculated based on the increase in the tail withdrawal latency according to the following formula and is expressed as percentage of the maximum possible effect (MPE [%]): MPE=[(T1−T0)/(T2−T0)]*100
In this, T0 is the control latency time before and T1 the latency time after administration of the compound, T2 is the cutoff time and MPE is the maximum possible effect. Employing variant analysis (repeated measures ANOVA) allowed testing of statistically significant differences between the compounds according to the invention and the vehicle group. The significance level was set to p≦0.05. To determine the dose dependency, the particular compound according to the invention was administered in 3-5 logarithmically increasing doses, including a threshold dose and a maximum effective dose, and the ED50 values were determined with the aid of regression analysis. The ED50 calculation was performed at the time of maximum efficacy (usually 20 min after administration of the compounds).
Background: In hot-plate and tail-flick tests a longer latency is read as antinociception.

For the compound `COc1nc2cc(C(F)(F)F)ccc2c(OC)c1C(=O)NCc1cccc(F)c1` [Example 13, N-[(3-fluorophenyl)-methyl]-2,4-dimethoxy-7-(trifluoromethyl)-quinoline-3-carboxylic acid amide], in assay [1], the response was half-maximal at 136 nM (EC50) and the Emax stood at 147%. Moreover, the inhibition in vivo at 10 mg/kg in assay [2] came out at 10%.
Regarding `COc1nc2cc(C(F)(F)F)ccc2c(OC)c1C(=O)NCc1ccc(F)cc1` [Example 16, N-[(4-fluorophenyl)-methyl]-2,4-dimethoxy-7-(trifluoromethyl)-quinoline-3-carboxylic acid amide], in assay [1], the midpoint of the response, the EC50, lay at 106 nM and the Emax was found to be 159%. Moreover, the inhibition in vivo at 10 mg/kg in assay [2] came to 74%.
Consider `CCOc1nc2cc(C(F)(F)F)ccc2c(C)c1C(=O)NCc1ccc(C)c(F)c1` [Example 20, 2-ethoxy-N-[(3-fluoro-4-methyl-phenyl)-methyl]-4-methyl-7-(trifluoromethyl)-quinoline-3-carboxylic acid amide], for which, in assay [1], the response was half-maximal at 72 nM (EC50) and the Emax worked out at 146%. The inhibition in vivo at 10 mg/kg in assay [2] came to 24%.
The like results for `CCOc1nc2cc(C(F)(F)F)ccc2c(C)c1C(=O)NCc1cccc(C)c1` [Example 22, 2-ethoxy-4-methyl-N-(m-tolyl-methyl)-7-(trifluoromethyl)-quinoline-3-carboxylic acid amide] were, in that order, 58 nM, 111% and 20%.
With `CCOc1nc2cc(C(F)(F)F)ccc2c(C)c1C(=O)NCc1ccc(F)c(C)c1` [Example 24, 2-ethoxy-N-[(4-fluoro-3-methyl-phenyl)-methyl]-4-methyl-7-(trifluoromethyl)-quinoline-3-carboxylic acid amide], in assay [1], the concentration for a half-maximal effect (EC50) was 53 nM and the Emax was 108%. Moreover, the inhibition in vivo at 6.81 mg/kg in assay [2] was 17%.
In the case of `COc1nc2cc(C(F)(F)F)ccc2c(C)c1C(=O)NCCCC(C)(C)C` [Example 29, N-(4,4-dimethyl-pentyl)-2-methoxy-4-methyl-7-(trifluoromethyl)-quinoline-3-carboxylic acid amide], in assay [1], the half-maximal effective concentration (EC50) was found to be 28 nM and the Emax was 244%. The inhibition in vivo at 10 mg/kg in assay [2] worked out at 28%.
`CCOc1nc2cc(C#N)ccc2c(C)c1C(=O)NCc1ccc(F)cc1` [Example 35, 7-cyano-2-ethoxy-N-[(4-fluorophenyl)-methyl]-4-methyl-quinoline-3-carboxylic acid amide]: in assay [1], the concentration for a half-maximal effect (EC50) was 82 nM and the Emax came out at 112%. Moreover, the inhibition in vivo at 6.81 mg/kg in assay [2] was 32%.
For the compound `Cc1c(C(=O)NCc2cccc(F)c2)c(OCC(F)(F)F)nc2cc(C(F)(F)F)ccc12` [Example 50, N-[(3-fluorophenyl)-methyl]-4-methyl-2-(2,2,2-trifluoro-ethoxy)-7-(trifluoromethyl)-quinoline-3-carboxylic acid amide], in assay [1], the EC50 amounted to 25 nM and the Emax was 108%. Besides, in assay [2], the inhibition in vivo at 10 mg/kg is 24%.

In general, EC50 refers to the concentration needed to bring the measured effect to its halfway point. The low end stands for greater potency, the high end for weaker potency.
